# pIC50: −log10 of the molar value. Like-named read-outs stand apart in the source and are kept apart here.
# Tests used:
# [1] = system: resistant E. coli strains; assay: Cross-resistance testing of resistant E. coli strains; format: cell-based, Escherichia coli; conditions: for Cross-resistance of 17-resistant E. coli strains (in words): strains initially made resistant to 17; for Cross-resistance of nitrofurantoin-resistant E. coli strains (in words): strains initially made resistant to nitrofurantoin; for Cross-resistance of nifuroxazide-resistant E. coli strains (in words): strains initially made resistant to nifuroxazide
# E. coli GroEL/ES = E. coli GroEL/ES (Escherichia coli, UniProt P0A6F5); assay: In situ NfsB-GroEL/ES-dMDH refolding assay; format: biochemical; conditions: activated by E. coli NfsB
# Sequence of E. coli GroEL/ES (P0A6F5 2-548): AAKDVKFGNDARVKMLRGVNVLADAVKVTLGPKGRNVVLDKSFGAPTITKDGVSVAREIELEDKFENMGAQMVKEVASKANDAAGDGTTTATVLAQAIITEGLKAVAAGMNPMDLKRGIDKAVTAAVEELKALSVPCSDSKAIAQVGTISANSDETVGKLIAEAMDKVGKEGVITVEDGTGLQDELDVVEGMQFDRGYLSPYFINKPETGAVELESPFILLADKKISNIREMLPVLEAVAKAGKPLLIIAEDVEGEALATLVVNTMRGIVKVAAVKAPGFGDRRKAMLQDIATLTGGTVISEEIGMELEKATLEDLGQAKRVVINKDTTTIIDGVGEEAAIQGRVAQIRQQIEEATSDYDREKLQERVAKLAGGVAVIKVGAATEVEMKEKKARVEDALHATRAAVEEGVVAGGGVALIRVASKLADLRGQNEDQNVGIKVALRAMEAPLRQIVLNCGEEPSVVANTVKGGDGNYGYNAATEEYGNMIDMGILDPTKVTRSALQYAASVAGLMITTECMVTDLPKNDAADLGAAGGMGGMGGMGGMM
# [2] = system: human FHs 74 Int small intestinal cells; assay: Alamar Blue cell viability assay, FHs 74 Int small intestine cells; conditions: for Cytotoxicity to human cells (in words): FHs 74 Int shown, FHC colon cells similar
# NEB 5-alpha E. coli = format: cell-based, Escherichia coli; conditions: 12-day serial passage, duplicates
# human FHC colon cells = assay: Alamar Blue cell viability assay, FHC colon cells; conditions: CC50 FHC colon cells over EC50 E. coli proliferation
# [3] = molecular target: T1, native MDH (malate dehydrogenase) (Sus scrofa, UniProt P00346); format: biochemical
# T1 sequence (P00346 25-338): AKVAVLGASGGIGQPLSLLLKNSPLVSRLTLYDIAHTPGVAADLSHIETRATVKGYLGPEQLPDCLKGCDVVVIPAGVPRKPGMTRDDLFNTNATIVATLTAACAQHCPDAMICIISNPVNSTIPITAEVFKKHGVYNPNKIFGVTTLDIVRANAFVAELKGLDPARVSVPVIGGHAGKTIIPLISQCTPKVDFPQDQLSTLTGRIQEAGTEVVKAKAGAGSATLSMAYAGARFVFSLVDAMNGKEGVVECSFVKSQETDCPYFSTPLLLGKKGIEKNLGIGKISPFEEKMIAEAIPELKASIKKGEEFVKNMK
# [4] = molecular target: T1, native MDH (malate dehydrogenase); assay: Native MDH enzymatic activity counter-screen; format: biochemical
# [5] = system: Klebsiella pneumoniae (ATCC #13883); assay: K. pneumoniae bacterial proliferation assay; format: cell-based
# [6] = system: human mitochondrial HSP60/10 chaperonin system; conditions: ref [59], [84]; cited from earlier work
SMILES,pIC50 [3],pIC50 [4],Cytotoxicity to human cells (in words) [2],Time for E. coli to develop intermediate resistance (NEB 5-alpha E. coli) [days],further results
O=C(N/N=C/c1ccc([N+](=O)[O-])o1)c1ccc(O)cc1 [Nifuroxazide],,,low to no cytotoxicity,3 to 5,Cross-resistance of 17-resistant E. coli strains (in words) [1]: susceptible; Cross-resistance of nitrofurantoin-resistant E. coli strains (in words) [1]: still sensitive; GroEL/ES inhibition in the presence of NfsB (in words) (E. coli GroEL/ES): weak to moderate
"O=C1CN(/N=C/c2ccc([N+](=O)[O-])o2)C(=O)N1 [Nitrofurantoin, reference compound]",< 4.25,< 4.20,low to no cytotoxicity,3 to 5,"Cross-resistance of 17-resistant E. coli strains (in words) [1]: susceptible to nifuroxazide, but not nitrofurantoin; Cross-resistance of nifuroxazide-resistant E. coli strains (in words) [1]: cross-resistant; SI (CC50 / EC50) Colon (human FHC colon cells): >146; GroEL/ES inhibition in the presence of NfsB (in words) (E. coli GroEL/ES): weak to moderate; SI (CC50 / EC50) Intestine ([2]; CC50 FHs 74 Int cells over EC50 E. coli proliferation): >146"
O=C(N/N=C/c1ccc([N+](=O)[O-])o1)c1ccc(Cl)s1 [compound 17],< 4.25,< 4.20,low to no cytotoxicity,3 to 5,Inhibition of K. pneumoniae (in words) [5]: moderate inhibitors of K. pneumoniae; Cross-resistance of nifuroxazide-resistant E. coli strains (in words) [1]: cross-resistant; Cross-resistance of nitrofurantoin-resistant E. coli strains (in words) [1]: still sensitive
Cc1ccc(C(=O)Nc2ccc(S(=O)(=O)O)c3cc(S(=O)(=O)O)cc(S(=O)(=O)O)c23)cc1NC(=O)c1cccc(NC(=O)Nc2cccc(C(=O)Nc3cc(C(=O)Nc4ccc(S(=O)(=O)O)c5cc(S(=O)(=O)O)cc(S(=O)(=O)O)c45)ccc3C)c2)c1 [suramin],,,,,HSP60/10 inhibition (in words) [6]: potent HSP60/10 inhibitor

# Second part, led by results:
pIC50 [3],pIC50 [4],SMILES,Cytotoxicity to human cells (in words) [2],Time for E. coli to develop intermediate resistance (NEB 5-alpha E. coli) [days],further results
< 4.25,< 4.20,O=C(N/N=C/c1ccc([N+](=O)[O-])o1)c1cccs1 [compound 16],low to no cytotoxicity,,Inhibition of K. pneumoniae (in words) [5]: moderate inhibitors of K. pneumoniae
< 4.25,< 4.20,O=C(N/N=C/c1ccc([N+](=O)[O-])o1)c1ccccc1 [compound 18],,,
< 4.25,< 4.20,O=C(N/N=C/c1ccc([N+](=O)[O-])o1)c1ccncc1 [compound 19],,,
< 4.25,< 4.20,COc1ccc(C(=O)N/N=C/c2ccc([N+](=O)[O-])o2)cc1 [compound 20],low to no cytotoxicity,,SI (CC50 / EC50) Colon (human FHC colon cells): >53
< 4.25,< 4.20,CN(C)c1ccc(C(=O)N/N=C/c2ccc([N+](=O)[O-])o2)cc1 [compound 21],,,

# Source: PMC7914298 (Bioorganic & medicinal chemistry, 2020)
